In ChEMBL document CHEMBL5728812, “Inhibitors of Plasma Kallikrein and uses thereof” (2021):

Target: Plasma kallikrein (Homo sapiens, UniProt P03952)
Assay: Inhibitory Activity Assay: Plasma Kallikrein: The example compounds were evaluated for inhibition of the human activated kallikrein enzyme in two formats of an assay employing a fluorogenic peptide substrate. In one assay format, the concentrations of reagents were as follows: 20 mM Tris pH 7.5, 1 mM EDTA, 150 mM sodium chloride, 0.1% PEG-400, 0.1% Triton X-100, 500 pM activated kallikrein enzyme, 300 uM Pro-Phe-Arg-7-amido-4-methylcoumarin substrate. Prior to reaction initiation with substrate, enzyme and inhibitors were preincubated for 30 min at room temperature. After initiation with substrate, reactions were incubated for 10 min at room temperature and fluorescence emission at 460 nm from 380 nm excitation measured with a microplate reader. In another assay format, the concentrations of reagents were as follows: 20 mM Tris pH 7.5, 1 mM EDTA, 150 mM sodium chloride, 0.1% PEG-400, 0.1% Triton X-100, 5 pM activated kallikrein enzyme, 300 uM Pro-Phe-Arg-7-amido-4-methylcoumarin substrate. Prior to reaction initiation with substrate, enzyme and inhibitors were preincubated for 30 min at room temperature. After initiation with substrate, reactions were incubated for 18 hr at room temperature and fluorescence emission at 460 nm from 380 nm excitation measured with a microplate reader.

Plasma kallikrein, sequence (P03952 20-390 limits assumed): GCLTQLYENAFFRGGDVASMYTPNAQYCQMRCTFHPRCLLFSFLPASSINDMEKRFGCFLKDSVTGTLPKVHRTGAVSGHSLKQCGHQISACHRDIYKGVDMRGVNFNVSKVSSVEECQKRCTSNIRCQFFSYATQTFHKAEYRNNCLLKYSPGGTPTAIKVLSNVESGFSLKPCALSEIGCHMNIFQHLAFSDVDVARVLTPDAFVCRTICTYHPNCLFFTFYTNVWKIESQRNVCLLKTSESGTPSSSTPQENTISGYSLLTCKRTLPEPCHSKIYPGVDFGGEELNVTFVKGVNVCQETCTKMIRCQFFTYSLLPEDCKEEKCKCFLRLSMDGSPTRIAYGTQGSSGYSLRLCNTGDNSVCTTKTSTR
Plasma kallikrein, sequence (P03952 391-638 limits assumed): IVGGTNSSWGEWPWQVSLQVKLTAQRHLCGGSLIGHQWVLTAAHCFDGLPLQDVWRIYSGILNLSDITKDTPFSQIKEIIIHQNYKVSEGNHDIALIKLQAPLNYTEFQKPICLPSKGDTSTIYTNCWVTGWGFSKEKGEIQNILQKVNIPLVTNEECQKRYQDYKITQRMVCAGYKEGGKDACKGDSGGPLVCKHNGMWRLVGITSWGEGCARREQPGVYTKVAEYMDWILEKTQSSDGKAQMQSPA

EC50: < 100 nM
SMILES: CNC(=O)[C@H](CCCCNC(=N)N)NC(=O)c1csc([C@@H]2C[C@@H](N)CN2C(=O)c2ccc3cc(Cl)ccc3n2)n1
